From paper PMC6504561 (Science signaling, 2017)
One block for each compound: values may come before it.

Assays:
ARHGEF2 = settings: cited from earlier work; for effect on ARHGEF2 release from microtubules and RHOA activation: disruption of polymerized microtubules; for effect on ARHGEF2 activation: GPCR ligands
[1] = test system: ARHGEF2 Ser^151 phosphorylation; assay: Western blot of ARHGEF2 Ser^151 phosphorylation in treated HEK293T cells; type: cell-based; settings: 1mM for 6 hours, normalized with total ARHGEF2, three independent experiments
14-3-3 = target: T1, 14-3-3 (Mus musculus, UniProt P63101); assay: Microscale thermophoresis; type: binding, murine; settings: MST; peptides at 100 nM; GST-14-3-3 serial dilutions 195 μM to 2 nM; 20 mM HEPES pH 7.4, 150 mM NaCl, 1 mM DTT, 0.05 % Tween20; three independent experiments
T1 sequence (P63101 1-245): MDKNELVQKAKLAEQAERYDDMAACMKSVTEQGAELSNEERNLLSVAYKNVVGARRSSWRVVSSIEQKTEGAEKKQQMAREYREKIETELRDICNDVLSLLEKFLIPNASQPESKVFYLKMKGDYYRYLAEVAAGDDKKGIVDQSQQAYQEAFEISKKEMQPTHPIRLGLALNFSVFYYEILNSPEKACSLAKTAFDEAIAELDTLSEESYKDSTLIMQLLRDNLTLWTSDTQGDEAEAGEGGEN

Compound: COC(=O)Nc1nc2ccc(C(=O)c3cccs3)cc2[nH]1 [Nocodazol]
- effect on ARHGEF2 release from microtubules and RHOA activation (ARHGEF2): release ARHGEF2 and lead to potent activation of RHOA

Compound: NC(=O)c1ncn([C@@H]2O[C@H](COP(=O)(O)O)[C@@H](O)[C@H]2O)c1N [5-Aminoimidazole-4-carboxamide ribonucleotide]
- ARHGEF2 Ser^151 phosphorylation [1]: no apparent change in phosphorylation of this residue was observed

Compound: CC(=O)O[C@H]1C(=O)[C@@]2(C)[C@H]([C@H](OC(=O)c3ccccc3)[C@]3(O)C[C@H](OC(=O)[C@H](O)[C@@H](NC(=O)c4ccccc4)c4ccccc4)C(C)=C1C3(C)C)[C@]1(OC(C)=O)CO[C@@H]1C[C@@H]2O [Paclitaxel]
- effect on ARHGEF2 release from microtubules and RHOA activation (ARHGEF2): an effect that can be reversed by the microtubule stabilizing drug Paclitaxel

Compound: COc1cc2c(c(OC)c1OC)-c1ccc(OC)c(=O)cc1[C@@H](NC(C)=O)CC2 [Colchicine]
- effect on ARHGEF2 release from microtubules and RHOA activation (ARHGEF2): release ARHGEF2 and lead to potent activation of RHOA

- binding to 14-3-3 (in words) (14-3-3): no binding was detected
Compound: RRPLDPRRR[(p)Ser885]LPAGDA[Lys(FITC)]

Compound: lysophosphatidic acid
- effect on ARHGEF2 activation (ARHGEF2): trigger activation of ARHGEF2

Compound: thrombin
- effect on ARHGEF2 activation (ARHGEF2): trigger activation of ARHGEF2

- binding to 14-3-3 (in words) (14-3-3): no binding was detected
Compound: SSLSLAKSV[(p)Ser^151]TTNIAG[Lys(FITC)]
